Measurements as given in US7105492B2, “Camptothecin derivatives having antitumor activity” (priority 1999, dated 2006).
Where “and” joins values, the source holds several entries; their conditions need not be identical. Equal entries are not always repeated.

What was measured:
topoisomerase i = biological target: T1, topoisomerase i (Homo sapiens, UniProt P11387); test: Persistence of topoisomerase I-mediated DNA cleavage after addition of 0.6 M NaCl; format: biochemical; settings: for Reversibility / persistence of the DNA cleavages (in words): after sodium chloride (0.6 M), about 10 minutes; for PERSISTENCE (%) of DNA cleavage on selected sites: drug 10 μm, 20 minutes incubation, then sodium chloride (0.6 M), examined after about 10 minutes
T1 sequence (P11387 1-765): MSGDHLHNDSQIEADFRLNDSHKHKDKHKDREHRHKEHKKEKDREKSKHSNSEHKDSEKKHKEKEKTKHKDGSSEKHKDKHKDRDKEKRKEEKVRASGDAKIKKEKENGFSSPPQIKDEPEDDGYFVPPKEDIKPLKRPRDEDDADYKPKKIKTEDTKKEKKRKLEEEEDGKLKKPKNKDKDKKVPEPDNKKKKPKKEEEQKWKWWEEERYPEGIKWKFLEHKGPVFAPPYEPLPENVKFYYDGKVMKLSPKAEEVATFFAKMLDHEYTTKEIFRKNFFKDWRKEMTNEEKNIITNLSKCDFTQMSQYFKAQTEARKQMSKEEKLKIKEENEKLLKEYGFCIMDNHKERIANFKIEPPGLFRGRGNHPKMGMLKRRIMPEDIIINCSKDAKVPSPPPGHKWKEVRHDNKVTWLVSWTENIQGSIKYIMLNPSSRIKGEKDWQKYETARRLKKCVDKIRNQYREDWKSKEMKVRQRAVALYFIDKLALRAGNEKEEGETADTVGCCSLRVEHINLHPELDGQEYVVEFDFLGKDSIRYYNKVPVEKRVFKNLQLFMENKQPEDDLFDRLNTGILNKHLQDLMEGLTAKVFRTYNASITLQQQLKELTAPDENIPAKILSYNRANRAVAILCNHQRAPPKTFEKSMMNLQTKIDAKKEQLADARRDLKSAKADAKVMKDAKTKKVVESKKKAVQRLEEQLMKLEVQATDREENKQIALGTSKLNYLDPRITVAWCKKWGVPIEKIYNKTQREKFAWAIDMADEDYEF
Method: An important drawback of conventional camptothecins is the reversibility of the their bond in the ternary complex (drug-DNA-enzyme).
After 20 minutes of incubation of the drug in the reaction mixture containing labelled DNA and the purified enzyme, sodium chloride (0.6 M) was added with the scope of assisting the dissociation of the ternary complex.

GBM/7 glioblastoma = test: Antitumor activity on tumor models: GBM/7; format: in vivo, mice
Description: (§1) This broad spectrum of anticancer activity was confirmed in mice transplanted with human tumor xenografts, including NSCLC (H460, A549), prostate ca. (JCA-1), glioblastoma (GBM/7), gastric ca. (MKN28), osteosarcoma (U2OS), ovarian ca. (A2780/Dx, A2780/DDP) and colon (HT29, CoBA) carcinomas as well as in murine lung cancer (M109) and leukaemia model (L1210).

CoBA colon ca = test: Antitumor activity on tumor models: CoBA; format: in vivo, mice
Description: as §1

lung carcinoma NCI H460 = test: Antitumoral activity in nude mice implanted s.c. with NCI H460 tumour fragments (Table 1); settings: for Efficacy (TVI %): evaluated 5–10 days after the last treatment
Method: For the in vivo studies, the solubilization was carried out in 10% DMSO in bidistilled water, being impossible the solubilization in saline, and the administration for the oral route was carried out at a volume of 10 ml/kg.
Atimic nu/nu Swiss mice (Charles River, Calco, Italia), ageing 10–12 weeks were used. The animals were maintained in laminar flow rooms, according to the guidelines of the United Kingdom Co-ordination Committee Cancer Research. Experimental protocols were approved by the Ethical Committee for animal experimentation of Istituto Nazionale per lo Studio e Cura dei Tumori.
Tumour fragments of about 2×2×2 mm coming from mice to which were inoculated s.c. 10^6 cells NCI H460/topo, were implanted s.c. bilaterally in groups of 5 mice each.
Twice a week, using a Vernier caliper, the width, minimum diameter (l), length and maximum diameter (L) of the tumors were measured, in mm. The tumour volume (mm^3) was calculated according to the formula I^2×L/2. Efficacy of the molecule was evaluated as TVI percent of the treated group versus the control group according to the formula TVI%=100−(T/C×100), wherein T is the mean value of the tumour volume of the treated group and C of control one.

H460 = NSCLC = test: Antitumor activity on tumor models: H460; format: in vivo, mice
Description: as §1

L1210 = murine leukemia = test: Antitumor activity on tumor models: L1210 leukemia, increase in life span; format: in vivo, mice
Description: as §1

HT29 colon ca = test: Antitumor activity on tumor models: HT29; format: in vivo, mice
Description: as §1

JCA-1 prostate ca = test: Antitumor activity on tumor models: JCA-1; format: in vivo, mice
Description: as §1

DU145 prostate ca = test: Antitumor activity on tumor models: DU145; format: in vivo, mice
A2780/DDP ovarian ca = test: Antitumor activity on tumor models: A2780/DDP; format: in vivo, mice
Description: as §1

IGROV-1 ovarian ca = test: Antitumor activity on tumor models: IGROV-1; format: in vivo, mice
A2780 ovarian ca = test: Antitumor activity on tumor models: A2780; format: in vivo, mice
Description: as §1

A2780/Dx ovarian ca = test: Antitumor activity on tumor models: A2780/Dx; format: in vivo, mice; settings: for TVI % / no evidence of tumor at the end of the treatment lasting for about 10 days from the last administration: A2780/Dx
Description: as §1
The high cytotoxic potency of the compounds of the present invention, herein represented in an exemplary way with one of the preferrred compounds, CPT 184, is also reflected by the potent antitumor activity. […] Moreover, the compounds of the present invention, in particular the CPT 184, were able to induce 100% CR in the A2780/DX tumor characterized by a MDR-phenotype.

U87 glioblastoma = test: Antitumor activity on tumor models: U87; format: in vivo, mice
[1] = cited from earlier work; for crossing of the hematoencephalic barrier (in words): in vivo
[2] = system: MKN-28 human gastric carcinoma; test: ST 1737 per os in athymic nude mice bearing s.c. MKN-28 human gastric carcinoma; format: in vivo; settings: q4d × 4; for TVI % (tumor volume inhibition % in treated over control tumors): at 11–12 day after last treatment
[3] = Water solubility (remark in Table 4); format: physicochemical
[4] = system: NCI H460 lung non-small cell carcinoma; test: Antiproliferative activity test (cytotoxic activity) on NCI H460 cells; format: cell-based, human; settings: H-460
Method: Cytotoxic activity of the compounds of the present invention was assayed in cell systems of human tumour cells, using the antiproliferative activity test as a method of evaluation of the cytotoxic potential.
The cell line used is a lung non-small cell carcinoma that belongs to non-small cells hystotype named NCI H460.

## CC[C@@]1(O)C(=O)OCc2c1cc1n(c2=O)Cc2c-1nc1ccccc1c2C=NOCc1ccccc1 [CPT 172, 7-Benzyloxyiminomethylcamptothecin]
Topoisomerase i
  Reversibility / persistence of the DNA cleavages (in words): marked persistence
  PERSISTENCE (%) of DNA cleavage on selected sites: 80%
GBM/7 glioblastoma; GBM/7, 20 mg/kg
  TVI %: 93%
  no evidence of tumor at the end of the treatment lasting for about 10 days from the last administration: (3/11*)
GBM/7 glioblastoma; GBM/7, 25 mg/kg
  TVI %: 98%
  no evidence of tumor at the end of the treatment lasting for about 10 days from the last administration: (9/12*)
CoBA colon ca; 20 mg/kg
  TVI %: 84%
CoBA colon ca; 25 mg/kg
  TVI %: 93%
Lung carcinoma NCI H460; 2 mg/kg p.o., qd × 5 × 10w
  Toxicity Body weight loss (%): 0%
  Toxicity Lethality: 0/3
  Efficacy (TVI %): 90%
Lung carcinoma NCI H460; 8 mg/kg p.o., q4d × 4
  Efficacy (TVI %): 77%
Lung carcinoma NCI H460; 16 mg/kg p.o., q4d × 4
  Efficacy (TVI %): 88%
Lung carcinoma NCI H460; 24 mg/kg p.o., q4d × 4
  Toxicity Body weight loss (%): 6%
  Toxicity Lethality: 0/4
  Efficacy (TVI %): 97%
H460 = NSCLC; H460, 25 mg/kg
  TVI %: 97%
L1210 = murine leukemia; L1210, 25 mg/kg
  ILS % = percent increase in life span: > 400%
HT29 colon ca; HT29, 25 mg/kg
  TVI %: 88%
JCA-1 prostate ca; JCA-1, 20 mg/kg
  TVI %: 98%

## CC[C@@]1(O)C(=O)OCc2c1cc1n(c2=O)Cc2c-1nc1ccccc1c2C=NO [CPT 181, 7-hydroxyiminomethylcamptothecin, reference compound]
Topoisomerase i
  PERSISTENCE (%) of DNA cleavage on selected sites: 28%
Lung carcinoma NCI H460; 15 mg/kg p.o., q4d × 4
  Toxicity Body weight loss (%): 0%
  Toxicity Lethality: 0/4
  Efficacy (TVI %): 40%
Lung carcinoma NCI H460; 25 mg/kg p.o., q4d × 4
  Toxicity Body weight loss (%): 0%
  Toxicity Lethality: 0/4
  Efficacy (TVI %): 70%

## CC[C@@]1(O)C(=O)OCc2c1cc1n(c2=O)Cc2c-1nc1ccccc1c2C=NOC(C)(C)C [CPT 184, 7-T-Butoxyiminomethylcamptothecin]
Topoisomerase i
  Reversibility / persistence of the DNA cleavages (in words): marked persistence
  PERSISTENCE (%) of DNA cleavage on selected sites: 72%
DU145 prostate ca; DU145, 2 mg/kg
  TVI %: 95%
GBM/7 glioblastoma; GBM/7, 2 mg/kg
  TVI %: 97%
  no evidence of tumor at the end of the treatment lasting for about 10 days from the last administration: (3/10*)
GBM/7 glioblastoma; GBM/7, 3 mg/kg
  TVI %: 98%
  no evidence of tumor at the end of the treatment lasting for about 10 days from the last administration: (2/8*)
A2780/DDP ovarian ca; 2 mg/kg
  TVI %: 77%
A2780/DDP ovarian ca; 3 mg/kg
  TVI %: 90%
IGROV-1 ovarian ca; IGROV-1, 2 mg/kg
  TVI %: 93%
IGROV-1 ovarian ca; IGROV-1, 3 mg/kg
  TVI %: 96%
CoBA colon ca; 2 mg/kg
  TVI %: 84%
CoBA colon ca; 3 mg/kg
  TVI %: 87%
Lung carcinoma NCI H460; 2 mg/kg p.o., q4d × 4
  Toxicity Body weight loss (%): 0%
  Toxicity Lethality: 0/5
  Efficacy (TVI %): 100%
Lung carcinoma NCI H460; 5 mg/kg p.o., q10d × 6
  Toxicity Body weight loss (%): 9%
  Toxicity Lethality: 0/4
  Efficacy (TVI %): 99%
H460 = NSCLC; H460, 2 mg/kg
  TVI %: 99%
  no evidence of tumor at the end of the treatment lasting for about 10 days from the last administration: (5/8*)
L1210 = murine leukemia; L1210, 2 mg/kg
  ILS % = percent increase in life span: > 400%
  cured mice alive 120 d from leukemia injection: *** (>80% of cured mice alive 120 d from leukemia injection.)
HT29 colon ca; HT29, 2 mg/kg
  TVI %: 92%
A2780 ovarian ca; A2780, 2 mg/kg
  TVI %: 100%
  no evidence of tumor at the end of the treatment lasting for about 10 days from the last administration: (1/8*)
A2780/Dx ovarian ca; A2780/DX tumor characterized by a MDR-phenotype
  CR (complete regressions) induced: 100%
A2780/Dx ovarian ca; 2 mg/kg
  TVI %: 92%
  no evidence of tumor at the end of the treatment lasting for about 10 days from the last administration: (1/8*)
A2780/Dx ovarian ca; 3 mg/kg
  TVI %: 100%
  no evidence of tumor at the end of the treatment lasting for about 10 days from the last administration: (8/8*)
U87 glioblastoma; U87, 2 mg/kg
  TVI %: 80%
U87 glioblastoma; U87, 3 mg/kg
  TVI %: 87%
JCA-1 prostate ca; JCA-1, 2 mg/kg
  TVI %: 98%
  no evidence of tumor at the end of the treatment lasting for about 10 days from the last administration: (5/8*)

## CC[C@@]1(O)C(=O)OCc2c1cc1n(c2=O)Cc2cc3ccccc3nc2-1 [Camptothecin]
Topoisomerase i
  Reversibility / persistence of the DNA cleavages (in words): almost complete reversibility of the cleavages
  PERSISTENCE (%) of DNA cleavage on selected sites: 16%
[1]
  crossing of the hematoencephalic barrier (in words): does not cross hematoencephalic barrier in significant amount

## CC[C@@]1(O)C(=O)OCc2c1cc1n(c2=O)Cc2c-1nc1ccccc1c2C=Nc1ccccc1SSc1ccccc1N [ST 1737, 7–2-(2-aminophenyldithio)phenyliminomethylcamptothecin]
[2]; 4 mg/kg per os
  Tox (Dead/treated mice): 0/4
  TVI % (tumor volume inhibition % in treated over control tumors): 69%
[2]; 7 mg/kg per os
  Tox (Dead/treated mice): 0/4
  TVI % (tumor volume inhibition % in treated over control tumors): 56%
[2]; 12 mg/kg per os
  BWL % (body weight loss % induced by drug treatment): 4%
  Tox (Dead/treated mice): 0/4
  TVI % (tumor volume inhibition % in treated over control tumors): 68%
[3]
  water solubility (in words): (water soluble)
[4]
  IC50: 17 nM

## CC[C@@]1(O)C(=O)OCc2c1cc1n(c2=O)Cc2cc3c(CN(C)C)c(O)ccc3nc2-1 [TPT, Topotecan, reference compound]
Topoisomerase i
  Reversibility / persistence of the DNA cleavages (in words): almost complete reversibility of the cleavages
  PERSISTENCE (%) of DNA cleavage on selected sites: 16%
DU145 prostate ca; DU145, 15 mg/kg
  TVI %: 77%
GBM/7 glioblastoma; GBM/7, 15 mg/kg
  TVI %: 96%
  no evidence of tumor at the end of the treatment lasting for about 10 days from the last administration: (1/10*)
A2780/DDP ovarian ca; 15 mg/kg
  TVI %: 92%
IGROV-1 ovarian ca; IGROV-1, 15 mg/kg
  TVI %: 89%
CoBA colon ca; 15 mg/kg
  TVI %: 85%
Lung carcinoma NCI H460; 10 mg/kg p.o., q4d × 4
  Toxicity Lethality: 0/5
  Efficacy (TVI %): 64%
Lung carcinoma NCI H460; 15 mg/kg p.o., q4d × 4
  Toxicity Lethality: 0/4 and 0/5
  Efficacy (TVI %): 94% and 89%
H460 = NSCLC; H460, 15 mg/kg
  TVI %: 98%
L1210 = murine leukemia; L1210, 15 mg/kg
  ILS % = percent increase in life span: 39%
HT29 colon ca; HT29, 15 mg/kg
  TVI %: 65%
A2780 ovarian ca; A2780, 15 mg/kg
  TVI %: 96%
A2780/Dx ovarian ca; 15 mg/kg
  TVI %: 92%
  no evidence of tumor at the end of the treatment lasting for about 10 days from the last administration: (2/10*)
U87 glioblastoma; U87, 15 mg/kg
  TVI %: 82%
[1]; 10 min after infusion
  in the cerebrospinal fluid with respect to plasma: 30%
[1]; 30 min after infusion
  lactone form hydrolysed to open ring: 50%
[1]
  crossing of the hematoencephalic barrier (in words): crosses hematoencephalic barrier
JCA-1 prostate ca; JCA-1, 15 mg/kg
  TVI %: 95%
